# Biological target: Sodium-dependent dopamine transporter (Rattus norvegicus, UniProt P23977)
# Test: Concentration required to inhibit 50% of radioligand binding ([3H]WIN-35428) to the dopamine (DA) transporter in rat
# Sequence of Sodium-dependent dopamine transporter (P23977 whole entry): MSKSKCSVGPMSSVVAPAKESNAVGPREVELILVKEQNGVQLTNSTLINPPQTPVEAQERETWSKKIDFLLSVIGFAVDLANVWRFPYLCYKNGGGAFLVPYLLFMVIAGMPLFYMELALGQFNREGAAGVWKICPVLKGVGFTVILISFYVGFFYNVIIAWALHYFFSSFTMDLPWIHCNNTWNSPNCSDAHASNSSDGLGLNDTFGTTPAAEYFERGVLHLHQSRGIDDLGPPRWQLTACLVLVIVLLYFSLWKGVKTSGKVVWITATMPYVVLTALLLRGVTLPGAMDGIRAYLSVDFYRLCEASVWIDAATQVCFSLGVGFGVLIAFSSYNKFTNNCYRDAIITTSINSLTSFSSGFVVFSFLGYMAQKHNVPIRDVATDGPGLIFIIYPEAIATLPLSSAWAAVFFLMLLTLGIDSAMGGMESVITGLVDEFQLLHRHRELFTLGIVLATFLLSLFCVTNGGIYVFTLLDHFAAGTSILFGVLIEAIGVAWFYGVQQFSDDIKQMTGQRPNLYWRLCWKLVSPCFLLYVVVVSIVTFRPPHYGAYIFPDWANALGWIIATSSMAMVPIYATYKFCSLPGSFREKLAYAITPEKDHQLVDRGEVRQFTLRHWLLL
row,Structure (SMILES),IC50
1,CCC(=O)Nc1ccc([C@H]2C[C@H]3CCC([C@H]2C(=O)OC)N3C)cc1,121 nM
2,COC(=O)C1C2CC[C@H](C[C@H]1c1ccc(Br)cc1)N2C (some centres not stated),1.69 nM
3,COC(=O)C1C2CC[C@@H](C[C@@H]1c1ccc([N+](=O)[O-])cc1)N2C (some centres not stated),13.1 nM
4,COC(=O)C1C2CC[C@H](C[C@H]1c1ccc(Cl)c(Cl)c1)N2C (some centres not stated),0.79 nM
5,COC(=O)C1C2CC[C@H](C[C@@H]1c1cccc(I)c1)N2C (some centres not stated),26.1 nM
6,COC(=O)C1C2CC[C@H](C[C@@H]1c1cccc(Cl)c1)N2C (some centres not stated),6.27 nM
7,COC(=O)C1C2CC[C@H](C[C@@H]1c1cccc(F)c1)N2C (some centres not stated),16.4 nM
8,COC(=O)C1C2CC[C@H](C[C@@H]1c1ccc(N)c(Br)c1)N2C (some centres not stated),3.91 nM
9,COC(=O)C1C2CC[C@H](C[C@@H]1c1ccc(N)c(I)c1)N2C (some centres not stated),1.35 nM
10,COC(=O)C1C2CC[C@H](C[C@@H]1c1ccc(O)cc1)N2C (some centres not stated),12.1 nM
11,COC(=O)[C@@H]1C2CC[C@H](C[C@@H]1c1ccc(N)cc1)N2C,9.84 nM
12,COC(=O)C1C2CC[C@H](C[C@@H]1c1ccc(F)c(C)c1)N2C (stereo in doubt; 2x),2.95 nM

# Reference: ChEMBL document CHEMBL1127448, “Synthesis, ligand binding, and QSAR (CoMFA and classical) study of 3 beta-(3'-substituted phenyl)-, 3 beta-(4'-substituted phenyl)-, and 3 beta-(3',4'-disubstituted phenyl)tropane-2 beta-carboxylic acid methyl esters” (J Med Chem, 1994)
